The source of these data is patent US10975123B2, “Mutant Akt-specific capture agents, compositions, and methods of using and making” (California Institute of Technology, priority 2014, dated 2021).

Test [1] addresses T1, E17K 33-mer epitope (PH Domain fragment of Akt1) (Homo sapiens, UniProt P31749, E17K/H13K).
T1 construct: made in house; host or cells: chemical synthesis (Fmoc SPPS)
T1 sequence (P31749 1-33 H13K/E17K limits assumed): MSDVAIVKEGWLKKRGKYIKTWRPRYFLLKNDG
Briefly: Fluorescence polarization binding to E17K mutant epitope. The note with it: yleaf peptide 4, fluorescence polarization in solution, triplicate. The protocol: (§1) FIG. 2: Anchor ligand structure and characterization. (FIG. 2A) The peptide anchor ligand, yleaf (SEQ ID NO: 43), which was discovered using the epitope-targeting technique. The different sets of R groups indicate the modifications that were made to perform the various experiments described. (FIG. 2B) Point ELISA for specificity obtained by immobilizing biotinylated yleaf (SEQ ID NO: 43) anchor ligand 2 onto a Neutravidin plate, then incubating with a 6 His-tagged epitope (“6 His” disclosed as SEQ ID NO: 4) 3. […] (FIG. 2C) Binding curves of yleaf (SEQ ID NO: 43) anchor ligand 4 to the full-length WT or E17K mutant Akt1 proteins obtained in solution by fluorescence polarization. A saturation point for the WT ligand was not reached due to the prohibitively high protein concentration required. (FIG. 2D) Full binding curves of yleaf (SEQ ID NO: 43) anchor ligand 4 to the WT or E17K mutant epitopes. […] All assays were performed in triplicate and averaged. Error bars indicate standard deviation.
The selectivity of the yleaf (SEQ ID NO: 43) peptide for the E17K 33-mer epitope was also tested in an ELISA assay format. For these assays, the WT or E17K 33-mer peptide fragments were captured using the PEG-biotin-modified yleaf (SEQ ID NO: 43) ligand immobilized on a neutravidin-coated plate.
(In general: In fluorescence polarisation assays a small probe gives low polarisation when free and higher when bound to something large.)

Test [2] has as its target T2, E17K mutant PH Domain (PHD) of Akt1 (Homo sapiens, UniProt P31749, E17K).
T2 construct: The first 124 N-terminal amino acids from full length Akt1 were used as the PH Domain DNA; made in house; host or cells: E. coli
Briefly: Streptavidin-agarose immunoprecipitation (pulldown), E17K. It counts as binding. The following applies: streptavidin agarose, 1xTBS, western blot band size, in words. On the procedure:
Four biligand candidates were chosen based on their hydrophobicity and sequence homology using principal component analysis (FIG. 25). Biligands were synthesized by coupling the 2° ligand onto Rink Amide Resin on the Titan peptide synthesizer. The amide group on the end of the Lys(N3) was capped by shaking the resin with 2 mL acetic anhydride, 2 mL NMP and 0.5 mL DIEA for 3×10 minutes, then washed with NMP. FMOC-Propargylglycine-Otbu (Pra) was clicked onto the Lys(N3) on the 2° ligand by incubating 2 eq of the Pra amino acid with 2 eq CuI and 2 eq ascorbic acid with 1 eq azide on resin in 20% piperidine/NMP for 3 hours. The resin was washed 5×4 mL with a chelating solution of 1 g sodium diethyldithiocarbamate in 20 mL NMP and 1 mL DIEA. The anchor was then built onto the 2° ligand on bead, and an N-terminal PEG5-biotin tag were added. Assays were performed exactly as for the anchor ligands, except for two key differences. The biligand assays were done with 6 ug of GST-tagged PHD protein, instead of the untagged PHD that was used in the anchor pulldowns. The pull-downs were also conducted out of 1% serum in 1×TBS, as opposed to just 1×TBS.
Pulldown assays were done on Streptavidin Agarose resin from Invitrogen. The resin was incubated with N-terminal biotinylated anchor peptide candidates identified via the ClusterLigand sequence analysis. The anchor candidate coated beads were then incubated with either the wildtype or mutant protein to compare the selectivity of the ligands, as well as the binding ability. The bound protein was eluted and western blotted to compare the amount of protein present for each sample.
Relative protein band sizes were analyzed to compare binding between the anchor candidates and were used to determine selectivity for either wildtype or mutant PH Domain (FIG. 11). […] Both of these ligands look fairly selective for their respective PH Domain.

In test [3] the target is T3, E17K 33-mer fragment (6His-tagged) (Homo sapiens, UniProt P31749, E17K/H13K).
T3 construct: made in house; host or cells: chemical synthesis (Fmoc SPPS)
T3 sequence (P31749 1-33 H13K/E17K limits assumed): T1 sequence (P31749 1-33 H13K/E17K limits assumed)
Description: HPLC-detected immunoprecipitation (pulldown), E17K 33-mer. Type of test: binding. The note with it: 50 μM epitope, overnight 4° C., guanidine elution, in words. The text has this:
The label-modified yleaf (SEQ ID NO: 43) peptide (FIG. 2a and FIG. 12) was subjected to a variety of binding assays against the synthesized WT and E17K 33-mer PHD fragments prepared without the biotin label and alkyne click handle. First, the yleaf (SEQ ID NO: 43) peptide was used in immunoprecipitation assays to pull-down either the WT or E17K mutant 6His-tagged (SEQ ID NO: 4) 33-mer peptide fragments (FIGS. 13 and 14), as opposed to the full-length proteins that were used to initially validate the candidates. Typical immunoprecipitation assays involve western blotting to estimate the amount of protein binding, but 33-mer peptide fragments are not easily quantified on a blot. Because of this, the amount of peptide epitope precipitated in these assays was quantified via injection on an analytical HPLC. These assays further confirmed preferential yleaf (SEQ ID NO: 43) ligand binding to the E17K 33-mer epitope relative to the WT epitope (FIG. 15).
Pulldown assays with the biotinylated anchor and his-tagged 33-mer epitope were performed to verify epitope targeting. […] Because small peptide fragments like the 33-mer epitope are difficult to transfer to and detect on the nitrocellulose membrane as for a traditional Western blot, the amount of binding in these assays was detected via HPLC. […]

For test [4], the target named is full length Akt1E17K (Homo sapiens, UniProt P31749, E17K). Description: Fluorescence polarization binding to full-length E17K Akt1. The following applies: yleaf peptide 4, fluorescence polarization in solution, triplicate. On the procedure: as §1
FIG. 5: The PCC agent triligand development strategy, structure, and inhibition data. (FIG. 5A) The yleaf (SEQ ID NO: 43) anchor ligand with a C-terminal alkyne 2 was screened against an azide-terminated library in the presence of the full-length PH Domain to identify a biligand. The biligand 7 was then appended with an N-terminal azide and screened against an alkyne library to identify a triligand. […]

Entries after “also recorded” stand apart in the source; their conditions may differ. Where a SMILES comes first, the peptide text is derived from it. [ ]: non-standard residue; d: D form.

T2 sequence (P31749 1-124 E17K): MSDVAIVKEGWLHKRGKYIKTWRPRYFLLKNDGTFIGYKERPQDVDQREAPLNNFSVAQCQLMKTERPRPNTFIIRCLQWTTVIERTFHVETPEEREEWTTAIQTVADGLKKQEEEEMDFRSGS
Chain of full length Akt1E17K (P31749 whole entry E17K, the tested form may be a part): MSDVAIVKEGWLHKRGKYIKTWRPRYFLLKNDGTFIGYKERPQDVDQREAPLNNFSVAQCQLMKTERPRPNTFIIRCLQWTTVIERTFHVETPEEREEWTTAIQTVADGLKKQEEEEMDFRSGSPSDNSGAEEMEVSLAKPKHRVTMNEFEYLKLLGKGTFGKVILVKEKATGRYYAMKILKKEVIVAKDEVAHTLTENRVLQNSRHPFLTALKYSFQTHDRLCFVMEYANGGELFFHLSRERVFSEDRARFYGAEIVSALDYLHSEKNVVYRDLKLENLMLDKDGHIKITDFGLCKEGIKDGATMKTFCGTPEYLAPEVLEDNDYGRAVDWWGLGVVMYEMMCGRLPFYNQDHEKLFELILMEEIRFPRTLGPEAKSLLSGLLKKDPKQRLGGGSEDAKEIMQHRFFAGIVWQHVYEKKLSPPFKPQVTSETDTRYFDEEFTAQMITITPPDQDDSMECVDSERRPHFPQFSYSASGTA

For the molecule `CC(C)C[C@@H](NC(=O)[C@H](N)Cc1ccc(O)cc1)C(=O)N[C@H](CCC(=O)O)C(=O)N[C@H](C)C(=O)N[C@H](Cc1ccccc1)C(N)=O` [yleaf] (H-[dY][dL][dE][dA][dF]-NH2; N-terminus assumed), the Kd (in general, the constant that tells how readily two partners part at equilibrium) in test [1] was determined as 328 ± 96 nM; in test [4], 54 ± 7 nM. The “pulldown of E17K mutant PH Domain by biotinylated anchor candidates” value in test [2] is given as “a distinctively stronger binding to the E17K protein relative to the WT; also recorded: the greatest binding to the mutant”. The “amount of E17K 33-mer fragment pulled down (HPLC peak)” value in test [3] is on record as “preferential; also recorded: pulls down the most of the E17K 33mer fragment”.
